One may read the IC50 as the concentration needed to halve the response being measured.

In patent publication US20110124626A1, “BENZAZEPINE DERIVATIVES AND THEIR USE AS HISTAMINE H3 ANTAGONISTS” (TAKEDA PHARMACEUTICAL COMPANY LIMITED, priority 2008, published 2011) one finds IC50 data, which are given here for 29 compounds.

The test deals with T1, human H3 receptor (Homo sapiens, UniProt Q9Y5N1).
T1 construct: expressed in transfected cells
T1 sequence (Q9Y5N1 whole entry): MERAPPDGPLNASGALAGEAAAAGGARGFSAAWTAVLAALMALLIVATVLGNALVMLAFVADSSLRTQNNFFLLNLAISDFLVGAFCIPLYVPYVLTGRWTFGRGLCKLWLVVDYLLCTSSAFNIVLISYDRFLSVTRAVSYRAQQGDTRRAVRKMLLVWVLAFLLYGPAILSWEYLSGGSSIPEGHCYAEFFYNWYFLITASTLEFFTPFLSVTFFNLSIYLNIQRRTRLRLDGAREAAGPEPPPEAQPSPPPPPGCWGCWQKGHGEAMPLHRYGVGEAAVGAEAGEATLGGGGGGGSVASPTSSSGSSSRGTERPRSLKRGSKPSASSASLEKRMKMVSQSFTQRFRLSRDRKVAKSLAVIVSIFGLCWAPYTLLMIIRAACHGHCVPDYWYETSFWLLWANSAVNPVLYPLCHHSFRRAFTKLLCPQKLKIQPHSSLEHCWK
The experiment in a line: In vitro H3 binding assay (3H-N-α-methyl-histamine competition binding). To be noted: membranes of CHO-K1 cells expressing human H3 receptor; 2 nM 3H-NαMH; read-out: hH3 binding IC50. On the procedure: The ability of compounds to bind to the H3 receptor was determined by measuring the reduction in tritiated N-α-methyl-histamine (^3H—NαMH) binding in a competition binding assay. Changes in the levels of bound radio-label were monitored by scintillation counting with a Trilux Microbeta (Perkin Elmer).
Membranes were prepared from CHO-K1 cells stably expressing human H3 receptor; routinely grown as monolayers in Ham's F12 medium (Invitrogen) supplemented with 10% Foetal Clone 111 (Hyclone), 500 μg/ml G418 (Invitrogen), 5 μg/ml blasticidine S (Invivogen) and […] Gentamicin (Sigma) in 5% CO2 at 37° C. Cells were grown to 80-95% confluency, rinsed once with 1×PBS (Invitrogen) and detached by incubating with 1×PBS containing 0.02% EDTA (Sigma) for 10 minutes at room temperature. Cells were collected by centrifugation at 900×g, 4° C. for 10 minutes. Cells were rinsed once with 1×PBS and re-suspended in ice cold homogenisation buffer (50 mM Tris-HCl (pH 7.4), 2.5 mM EDTA, 5 mM MgCl2, 200 mM Sucrose) at 1×10^7 cells/ml and kept on ice. Cells were homogenised on ice and debris removed by centrifugation at 500×g, 4° C. for 5 minutes. The resulting supernatant was centrifuged at 75,600×g, 4° C. for 60 minutes. Membranes were suspended in homogenisation buffer, protein concentration was determined (BCA Protein Assay kit (Pierce)), diluted to 2.2 mg/ml, dispensed into 1 ml aliquots and stored at −80° C.
Membranes were thawed on ice, sonicated with 4 cycles of 20 pulses (50% amplitude, 0.5 pulse) (UP200S Hielscher) on ice, diluted in assay buffer (50 mM Tris-HCl (pH7.4), 5 mM MgCl2) to 62.5 μg/ml. Compound was serially diluted in DMSO before being diluted 1:10 with assay buffer. 5 μg of membrane in 80 μl of assay buffer was added per well of a 96 well polystyrene plate (Corning). […] of compound was added per well. The assay was initiated by the addition of 10 μl of 20 nM ^3H—NαMH per well and incubated for one hour at room temperature with shaking. Total binding was determined in the presence of 1% DMSO and non-specific binding was determined by the inclusion of 1 μM R-α-methyl-histamine (RαMH). Incubations were then filtered through filtermat A (Perkin Elmer) and washed three times with assay buffer. Filtermats were dried at 42° C. for two hours, scintillant added and the level of bound radioactivity determined.
IC50 values for compounds were determined from seven point log scale dose-response studies and represent the concentration of compound required to inhibit 50% of the specific binding of 2 nM ^3H—NαMH (difference between total and non-specific binding). Curves were generated using the average of duplicate wells for each data point and analyzed using nonlinear regression of sigmoidal dose response (variable slope).
As for `CC(C)NC(=O)c1ccc2c(c1)CCN(C1CCC1)CC2` [Example 26, 3-Cyclobutyl-N-isopropyl-2,3,4,5-tetrahydro-1H-benzo[d]azepine-7-carboxamide], the concentration for half-maximal inhibition (IC50) worked out at 36 nM.

In the case of `O=C(NCCc1ccccc1)c1ccc2c(c1)CCN(C1CCC1)CC2` [Example 38, 3-Cyclobutyl-N-phenethyl-2,3,4,5-tetrahydro-1H-benzo[d]azepine-7-carboxamide], the IC50 is 9 nM.

On to `O=C(NCc1ccc2c(c1)CCN(C1CCOC1)CC2)c1ccc(N2CCCC2)nc1` (centres unmarked) [Example 269, 6-(pyrrolidin-1-yl)-N-((3-(tetrahydrofuran-3-yl)-2,3,4,5-tetrahydro-1H-benzo[d]azepin-7-yl)methyl)nicotinamide], for which the 50% inhibitory concentration (IC50) is 2.5 nM.

In the case of `O=C(NCc1ccc2c(c1)CCN(C1CCC1)CC2)c1cccnc1` [Example 120, N-((3-cyclobutyl-2,3,4,5-tetrahydro-1H-benzo[d]azepin-7-yl)methyl)nicotinamide], the IC50 was 1 nM.

Take `Cc1nc(C)c(C(=O)NCc2ccc3c(c2)CCN(C2CCC2)CC3)s1` [Example 268, N-((3-cyclobutyl-2,3,4,5-tetrahydro-1H-benzo[d]azepin-7-yl)methyl)-2,4-dimethylthiazole-5-carboxamide]: the concentration for half-maximal inhibition (IC50) was 4 nM.

With `CCn1cc(CNC(=O)c2ccc3c(c2)CCN(C2CCC2)CC3)c(C)n1` [Example 99, 3-Cyclobutyl-N-((1-ethyl-3-methyl-1H-pyrazol-4-yl)methyl)-2,3,4,5-tetrahydro-1H-benzo[d]azepine-7-carboxamide], the IC50 was 18 nM.

Consider `CCn1cc(CNC(=O)c2ccc3c(c2)CCN(C2CCC2)CC3)cn1` [Example 95, 3-Cyclobutyl-N-((1-ethyl-1H-pyrazol-4-yl)methyl)-2,3,4,5-tetrahydro-1H-benzo[d]azepine-7-carboxamide], for which the IC50 amounted to 18 nM.

In the case of `Cn1nccc1CCC(O)c1ccc2c(c1)CCN(C1CCC1)CC2` (centres unmarked) [Example 137, 1-(3-cyclobutyl-2,3,4,5-tetrahydro-1H-benzo[d]azepin-7-yl)-3-(1-methyl-1H-pyrazol-5-yl)propan-1-ol], the IC50 was found to be 26 nM.

Take `O=C(NCc1ccccc1Cl)c1ccc2c(c1)CCN(C1CCC1)CC2` [Example 63, N-(2-Chlorobenzyl)-3-cyclobutyl-2,3,4,5-tetrahydro-1H-benzo[d]azepine-7-carboxamide]: the IC50 was found to be 6 nM.

In the case of `O=C(Cc1ccc2c(c1)CCN(C1CCC1)CC2)Nc1ccc(N2CCCC2)nc1` [Example 294, 2-(3-cyclobutyl-2,3,4,5-tetrahydro-1H-3-benzazepin-7-yl)-N-[6-(pyrrolidin-1-yl)pyridin-3-yl]acetamide], the IC50 worked out at 8 nM.

Regarding `O=C(NCc1cccs1)c1ccc2c(c1)CCN(C1CCC1)CC2` [Example 87, 3-Cyclobutyl-N-(thiophen-2-ylmethyl)-2,3,4,5-tetrahydro-1H-benzo[d]azepine-7-carboxamide], the IC50 amounted to 4 nM.

Regarding `O=C(NCc1ncc[nH]1)c1ccc2c(c1)CCN(C1CCC1)CC2` [Example 113, N-((1H-Imidazol-2-yl)methyl)-3-cyclobutyl-2,3,4,5-tetrahydro-1H-benzo[d]azepine-7-carboxamide], the IC50 is 13 nM.

In the case of `O/N=C(\CCc1ccccc1)c1ccc2c(c1)CCN(C1CCC1)CC2` [Example 132, 1-(3-cyclobutyl-2,3,4,5-tetrahydro-1H-benzo[d]azepin-7-yl)-3-phenylpropan-1-one oxime], the 50% inhibitory concentration (IC50) is 6 nM.

`COCC(C)(C)Oc1ccc(C(=O)NCc2ccc3c(c2)CCN(C2CCC2)CC3)cn1` [Example 315, N-[(3-cyclobutyl-2,3,4,5-tetrahydro-1H-3-benzazepin-7-yl)methyl]-6-[(1-methoxy-2-methylpropan-2-yl)oxy]pyridine-3-carboxamide]: the IC50 worked out at 2 nM.

Consider `Cn1nc(-c2cccs2)cc1CNC(=O)c1ccc2c(c1)CCN(C1CCC1)CC2` [Example 109, 3-Cyclobutyl-N-((1-methyl-3-(thiophen-2-yl)-1H-pyrazol-5-yl)methyl)-2,3,4,5-tetrahydro-1H-benzo[d]azepine-7-carboxamide], for which the IC50 is 2 nM.

Consider `Cc1nn(C)cc1CNC(=O)c1ccc2c(c1)CCN(C1CCC1)CC2` [Example 98, 3-Cyclobutyl-N-((1,3-dimethyl-1H-pyrazol-4-yl)methyl)-2,3,4,5-tetrahydro-1H-benzo[d]azepine-7-carboxamide], for which the half-maximal inhibitory concentration (IC50) is 15 nM.

Take `O=C(NCc1ccccn1)c1ccc2c(c1)CCN(C1CCC1)CC2` [Example 45, 3-Cyclobutyl-N-(pyridin-2-ylmethyl)-2,3,4,5-tetrahydro-1H-benzo[d]azepine-7-carboxamide]: the IC50 is 13 nM.

`Cc1nn(-c2ccccc2)c(C)c1CNC(=O)c1ccc2c(c1)CCN(C1CCC1)CC2` [Example 110, 3-Cyclobutyl-N-((3,5-dimethyl-1-phenyl-1H-pyrazol-4-yl)methyl)-2,3,4,5-tetrahydro-1H-benzo[d]azepine-7-carboxamide]: the IC50 is 17 nM.

Take `O=C(NCc1ccccc1Br)c1ccc2c(c1)CCN(C1CCC1)CC2` [Example 54, N-(2-Bromobenzyl)-3-cyclobutyl-2,3,4,5-tetrahydro-1H-benzo[d]azepine-7-carboxamide]: the IC50 was 10 nM.

For `O=C(NCc1ccc2c(c1)CCN(C1CCOC1)CC2)c1ccc(N2CC[C@H](F)C2)nc1` (stereo partly drawn) [Example 300, 6-((S)-3-fluoropyrrolidin-1-yl)-N-((3-(tetrahydrofuran-3-yl)-2,3,4,5-tetrahydro-1H-benzo[d]azepin-7-yl)methyl)nicotinamide], the IC50 was 5 nM.

In the case of `COc1ccc(NC(=O)Cc2ccc3c(c2)CCN(C2CCC2)CC3)cn1` [Example 274, 2-(3-cyclobutyl-2,3,4,5-tetrahydro-1H-benzo[d]azepin-7-yl)-N-(6-methoxypyridin-3-yl)acetamide], the IC50 amounted to 9 nM.

Turning to `O=C(C1CCC1)N1CCC(O)(Cc2ccc3c(c2)CCN(C2CCC2)CC3)CC1` [Example 155, cyclobutyl(4-((3-cyclobutyl-2,3,4,5-tetrahydro-1H-benzo[d]azepin-7-yl)methyl)-4-hydroxypiperidin-1-yl)methanone], the IC50 turned out to be 24 nM.

Turning to `O=C(NC1CCC1)c1ccc2c(c1)CCN(C1CCC1)CC2` [Example 27, N,3-Dicyclobutyl-2,3,4,5-tetrahydro-1H-benzo[d]azepine-7-carboxamide], the IC50 turned out to be 21 nM.

In the case of `O=C(NCc1ccc2c(c1)CCN(C1CCC1)CC2)c1ccc(NC2CCOC2)nc1` (centres unmarked) [Example 282, N-[(3-cyclobutyl-2,3,4,5-tetrahydro-1H-3-benzazepin-7-yl)methyl]-6-(tetrahydrofuran-3-ylamino)pyridine-3-carboxamide], the IC50 was 1 nM.

As to `Cc1nocc1C(=O)NCc1ccc2c(c1)CCN(C1CCC1)CC2` [Example 276, N-((3-cyclobutyl-2,3,4,5-tetrahydro-1H-benzo[d]azepin-7-yl)methyl)-3-methylisoxazole-4-carboxamide], the IC50 worked out at 19 nM.

Take `CCn1cc(Cl)c(CNC(=O)c2ccc3c(c2)CCN(C2CCC2)CC3)n1` [Example 106, N-((4-chloro-1-ethyl-1H-pyrazol-3-yl)methyl)-3-cyclobutyl-2,3,4,5-tetrahydro-1H-benzo[d]azepine-7-carboxamide]: the IC50 turned out to be 13 nM.

As for `O=C(NCc1cc(-c2cccs2)on1)c1ccc2c(c1)CCN(C1CCC1)CC2` [Example 84, 3-Cyclobutyl-N-((5-(thiophen-2-yl)isoxazol-3-yl)methyl)-2,3,4,5-tetrahydro-1H-benzo[d]azepine-7-carboxamide], the IC50 came out at 10 nM.

As to `COc1nc(C)c(C(=O)NCc2ccc3c(c2)CCN(C2CCC2)CC3)s1` [Example 275, N-((3-cyclobutyl-2,3,4,5-tetrahydro-1H-benzo[d]azepin-7-yl)methyl)-2-methoxy-4-methylthiazole-5-carboxamide], the IC50 was 7 nM.

As to `Cc1cc(CNC(=O)c2ccc3c(c2)CCN(C2CCC2)CC3)c(C)o1` [Example 91, 3-cyclobutyl-N-((2,5-dimethylfuran-3-yl)methyl)-2,3,4,5-tetrahydro-1H-benzo[d]azepine-7-carboxamide], the IC50 is 6 nM.
